These results are taken from US20210300940A1 (Merck Patent GmbH, priority 2018, published 2021).

One assay deals with T1, TLR8 (Homo sapiens, UniProt Q9NR97).
T1 construct: expressed in transfected cells; host or cells: HEK/293 reporter cells (NF-kB luciferase)
T1 sequence (Q9NR97 27-1041): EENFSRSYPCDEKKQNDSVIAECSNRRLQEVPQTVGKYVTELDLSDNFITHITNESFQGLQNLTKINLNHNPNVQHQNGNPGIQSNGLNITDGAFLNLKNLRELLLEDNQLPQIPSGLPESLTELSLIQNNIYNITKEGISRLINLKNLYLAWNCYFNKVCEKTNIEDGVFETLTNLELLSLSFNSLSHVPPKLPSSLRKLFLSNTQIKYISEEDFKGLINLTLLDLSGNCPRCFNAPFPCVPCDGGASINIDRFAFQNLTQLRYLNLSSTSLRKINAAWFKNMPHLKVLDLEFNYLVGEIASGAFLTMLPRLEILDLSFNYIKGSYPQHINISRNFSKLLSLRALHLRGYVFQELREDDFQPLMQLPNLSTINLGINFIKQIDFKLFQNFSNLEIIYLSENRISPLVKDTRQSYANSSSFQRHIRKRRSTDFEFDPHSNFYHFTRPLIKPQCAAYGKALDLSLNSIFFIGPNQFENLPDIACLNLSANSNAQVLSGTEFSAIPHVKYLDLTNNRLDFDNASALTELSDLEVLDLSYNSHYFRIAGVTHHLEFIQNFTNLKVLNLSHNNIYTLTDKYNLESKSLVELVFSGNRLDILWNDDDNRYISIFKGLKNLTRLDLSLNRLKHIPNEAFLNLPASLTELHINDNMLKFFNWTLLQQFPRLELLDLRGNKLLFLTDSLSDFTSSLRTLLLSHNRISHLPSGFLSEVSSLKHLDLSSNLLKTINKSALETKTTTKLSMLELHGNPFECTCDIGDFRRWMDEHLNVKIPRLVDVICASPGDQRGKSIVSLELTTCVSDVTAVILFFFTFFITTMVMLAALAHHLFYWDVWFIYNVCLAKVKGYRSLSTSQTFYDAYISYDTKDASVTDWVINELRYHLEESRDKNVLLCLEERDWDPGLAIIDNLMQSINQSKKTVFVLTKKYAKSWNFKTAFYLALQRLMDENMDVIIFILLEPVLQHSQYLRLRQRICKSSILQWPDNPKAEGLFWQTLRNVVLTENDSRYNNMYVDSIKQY
In words: HEK/293 TLR8 Cell Assay. Type of assay: cell-based. The following applies: HEK cells, R848 agonist 30 uM final concentration, Steady-Glo readout; read-out: TLR8 potency.

The target in another assay is T2, TLR7 (Homo sapiens, UniProt Q9NYK1).
T2 construct: expressed in transfected cells; host or cells: HEK/293 cells carrying TLR7 and an NF-kB luciferase reporter
T2 sequence (Q9NYK1 27-1049): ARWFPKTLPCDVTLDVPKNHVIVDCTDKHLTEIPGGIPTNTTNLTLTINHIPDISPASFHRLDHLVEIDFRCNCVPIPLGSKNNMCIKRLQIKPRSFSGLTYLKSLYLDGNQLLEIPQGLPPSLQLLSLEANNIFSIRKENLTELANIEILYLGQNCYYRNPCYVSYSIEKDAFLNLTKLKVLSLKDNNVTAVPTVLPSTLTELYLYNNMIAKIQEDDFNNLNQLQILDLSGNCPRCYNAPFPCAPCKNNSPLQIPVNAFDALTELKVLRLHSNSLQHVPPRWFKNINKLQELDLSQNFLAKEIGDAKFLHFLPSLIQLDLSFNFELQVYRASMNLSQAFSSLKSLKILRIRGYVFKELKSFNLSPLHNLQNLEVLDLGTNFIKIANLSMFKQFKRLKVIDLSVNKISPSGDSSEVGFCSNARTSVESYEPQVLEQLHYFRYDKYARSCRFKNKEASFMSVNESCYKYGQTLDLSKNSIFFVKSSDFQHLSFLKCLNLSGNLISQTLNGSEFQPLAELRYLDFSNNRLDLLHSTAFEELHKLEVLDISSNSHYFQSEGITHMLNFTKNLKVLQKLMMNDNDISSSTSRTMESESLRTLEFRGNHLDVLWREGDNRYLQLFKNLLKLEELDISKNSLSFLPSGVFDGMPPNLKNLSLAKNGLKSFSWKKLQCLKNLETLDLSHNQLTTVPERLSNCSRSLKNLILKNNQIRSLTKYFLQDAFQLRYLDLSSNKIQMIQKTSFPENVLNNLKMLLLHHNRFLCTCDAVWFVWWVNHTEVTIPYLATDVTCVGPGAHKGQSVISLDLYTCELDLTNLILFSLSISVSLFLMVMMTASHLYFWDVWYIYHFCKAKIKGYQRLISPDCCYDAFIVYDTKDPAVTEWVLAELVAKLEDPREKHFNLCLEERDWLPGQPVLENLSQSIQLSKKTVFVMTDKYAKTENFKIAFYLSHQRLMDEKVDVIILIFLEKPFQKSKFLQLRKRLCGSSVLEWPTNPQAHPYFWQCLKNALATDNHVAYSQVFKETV
In words: HEK/293 TLR7 Cell Assay. Type of assay: cell-based. To be noted: TLR7/NFKb HEK cells, R848 agonist 10 uM final concentration, Steady-Glo readout; read-out: TLR7 potency. An outline of the steps: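 Compounds added to HEK cells expressing TLR7 with an NFκB reporter 30 min ahead of 10 uM R848 challenge; luciferase signal (Steady-Glo) measured after 5 h, cells having been seeded 24 h earlier at 5000 per well.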

For the compound `C[C@@H]1CN(c2ccc(C#N)c3nccnc23)C[C@H](CSC2CN(CC(C)(C)O)C2)O1` [Example 226, 8-{(2R,6R)-2-[1-(2-Hydroxy-2-methyl-propyl)-azetidin-3-ylsulfanylmethyl]-6-methyl-morpholin-4-yl}-quinoxaline-5-carbonitrile], the IC50 on TLR8 and at TLR7 was less than 75 nM each time.

In the case of “(2S,6S)-4-(8-cyanoquinolin-5-yl)-N-[(4-fluoro-1-methylpiperidin-4-yl)methyl]-6-(trifluoromethyl)morpholine-2-carboxamide [Example 316]”, the IC50 at TLR8 is greater than 150 nM; at TLR7, 75 to 150 nM.

Regarding `CC(=O)NCCNC(=O)[C@H]1CN(c2ccc(C#N)c3nccnc23)C[C@@H](C)O1` [Example 243, (2R,6R)-4-(8-Cyano-quinoxalin-5-yl)-6-methyl-morpholine-2-carboxylic acid (2-acetylamino-ethyl)-amide], the IC50 at TLR8 is greater than 150 nM; at TLR7 it was 75 to 150 nM.

As for `C[C@H]1C[C@@H](NCCC(C)(C)O)CN(c2ccc(C(F)(F)F)c3ncccc23)C1` [Example 33, 2-Methyl-4-[(3R,5S)-5-methyl-1-(8-trifluoromethyl-quinolin-5-yl)-piperidin-3-ylamino]-butan-2-ol], the IC50 at TLR8 and on TLR7 was less than 75 nM in each case.

Take `C[C@H]1C[C@@H](n2ccnc2)CN(c2ccc(C#N)c3ncccc23)C1` [Example 158, 5-[(3R,5S)-3-(1H-imidazol-1-yl)-5-methylpiperidin-1-yl]quinoline-8-carbonitrile]: the IC50 on TLR8 was less than 75 nM; on TLR7 it was greater than 150 nM.

On to `COc1ncc(N2C[C@@H](C)C[C@@H](N)C2)c2nccnc12` [Example 199, (3R,5S)-1-(5-Methoxy-pyrido[3,4-b]pyrazin-8-yl)-5-methyl-piperidin-3-ylamine], for which the figures for the IC50 at TLR8 and at TLR7 were less than 75 nM and 75 to 150 nM, respectively.

Regarding `C[C@H]1C[C@@H](NCCNC(N)=O)CN(c2ccc(C(F)(F)F)c3ncccc23)C1` [Example 45, {2-[(3R,5S)-5-Methyl-1-(8-trifluoromethyl-quinolin-5-yl)-piperidin-3-ylamino]-ethyl}-urea], the IC50 on TLR8 and on TLR7 was less than 75 nM throughout.

Take `N#Cc1ccc(N2C[C@H](NC(=O)C3(F)CCNC3)C[C@H](C(F)(F)F)C2)c2cccnc12` (stereo partly drawn) [Example 206, N-[(3R,5S)-1-(8-cyanoquinolin-5-yl)-5-(trifluoromethyl)piperidin-3-yl]-3-fluoropyrrolidine-3-carboxamide]: the IC50 at TLR8 and at TLR7 was 75 to 150 nM each time.

Consider `N#Cc1ccc(N2C[C@H](NC(=O)CO)C[C@H](C(F)(F)F)C2)c2cccnc12` [Example 62, N-[(3R,5S)-1-(8-Cyano-quinolin-5-yl)-5-trifluoromethyl-piperidin-3-yl]-2-hydroxy-acetamide], for which the IC50 at TLR8 and on TLR7 was greater than 150 nM each time.

Turning to `C[C@H]1C[C@@H](NC(=O)CC2CCN(C(=O)NC(C)(C)CO)CC2F)CN(c2cnc(C#N)c3ncccc23)C1` (stereo partly drawn) [Example 149, 4-{[(3R,5S)-1-(8-Cyano-[1,7]naphthyridin-5-yl)-5-methyl-piperidin-3-ylcarbamoyl]-methyl}-3-fluoro-piperidine-1-carboxylic acid (2-hydroxy-1,1-dimethyl-ethyl)-amide], the results for the IC50 at TLR8 and at TLR7 were 75 to 150 nM and greater than 150 nM, respectively.

On to `C[C@H]1C[C@@H](OCCN2CCCCC2)CN(c2ccc(C#N)c3nccnc23)C1` [Example 5, 8-[(3S,5R)-3-methyl-5-[2-(piperidin-1-yl)ethoxy]piperidin-1-yl]quinoxaline-5-carbonitrile], for which the IC50 at TLR8 and at TLR7 was less than 75 nM throughout.

`C[C@H]1C[C@@H](NCC2(O)CCOCC2)CN(c2ccc(C(F)(F)F)c3nccnc23)C1` [Example 26, 4-{[(3R,5S)-5-Methyl-1-(8-trifluoromethyl-quinoxalin-5-yl)-piperidin-3-ylamino]-methyl}-tetrahydro-pyran-4-ol]: the IC50 on TLR8 and at TLR7 was less than 75 nM each time.

For the compound `C[C@H]1C[C@@H](NC(=O)NC2CCN(C)CC2)CN(c2ccc(C(F)(F)F)c3ncccc23)C1` [Example 147, 1-(1-Methyl-piperidin-4-yl)-3-[(3R,5S)-5-methyl-1-(8-trifluoromethyl-quinolin-5-yl)-piperidin-3-yl]-urea], the IC50 was less than 75 nM on TLR8 and greater than 150 nM at TLR7.

Regarding `Cc1c(F)cc(N2C[C@@H](C)O[C@@H](C(=O)N[C@H]3CNC[C@H]3F)C2)c2cccnc12` [Example 298, (2R,6R)-4-(7-Fluoro-8-methyl-quinolin-5-yl)-6-methyl-morpholine-2-carboxylic acid ((3S,4R)-4-fluoro-pyrrolidin-3-yl)-amide], the IC50 on TLR8 and on TLR7 was less than 75 nM throughout.

As for `C[C@@H]1CN(c2ccc(C#N)c3nccnc23)C[C@H](C(=O)NCC2(F)CCN(C)CC2)O1` [Example 253, (2R,6R)-4-(8-Cyano-quinoxalin-5-yl)-6-methyl-morpholine-2-carboxylic acid (4-fluoro-1-methyl-piperidin-4-ylmethyl)-amide], the IC50 on TLR8 and at TLR7 was less than 75 nM throughout.

For the compound `C[C@@H]1CN(c2cnc(C#N)c3ncccc23)C[C@H](CNC(=O)[C@]2(F)CCCNC2)O1` (single isomer, unassigned) [Example 339], the IC50 at TLR8 is less than 75 nM; on TLR7 it was greater than 150 nM.

Turning to `N#Cc1ccc(N2C[C@H](CN3CC(O)C3)O[C@H](C(F)(F)F)C2)c2nccnc12` (single isomer, unassigned) [Example 361], the IC50 is 75 to 150 nM at TLR8 and less than 75 nM at TLR7.

Turning to `C[C@@H]1CN(c2ccc(C#N)c3nccnc23)C[C@H](C(=O)NCCS(C)(=O)=O)O1` [Example 256, (2R,6R)-4-(8-cyanoquinoxalin-5-yl)-N-(2-methanesulfonylethyl)-6-methyl morpholine-2-carboxamide], the IC50 at TLR8 and at TLR7 was less than 75 nM in each case.

Take `C[C@H]1C[C@@H](NCCN2CCNC2=O)CN(c2ccc(C(F)(F)F)c3ncccc23)C1` [Example 27, 1-{2-[(3R,5S)-5-Methyl-1-(8-trifluoromethyl-quinolin-5-yl)-piperidin-3-ylamino]-ethyl}-imidazolidin-2-one]: the IC50 at TLR8 and on TLR7 was less than 75 nM throughout.

With `C[C@H]1CN(c2ccc(C#N)c3nccnc23)C[C@H](CN2CCC(N3CCCC3)CC2)O1` [Example 232, 8-[(2S,6S)-2-Methyl-6-(4-pyrrolidin-1-yl-piperidin-1-ylmethyl)-morpholin-4-yl]-quinoxaline-5-carbonitrile], the IC50 on TLR8 and at TLR7 was less than 75 nM throughout.
